According to publication PMC4468608, “A distinct p53 target gene set predicts for response to the selective p53–HDM2 inhibitor NVP-CGM097” (eLife, 2015):
Like-named read-outs stand apart in the source and are kept apart here.

System: cell lines from the Cancer Cell Line Encyclopedia (CCLE)
Assay: High-throughput cell viability assay, CCLE cell line panel (n = 356)
Type: cell-based, human
Details: for IC50: Homo sapiens
Method: Cell lines were partitioned into sensitive and insensitive groups based on compound potency (IC50). […] All other cell lines were obtained from ATCC (American Type Culture Collection), DSMZ (Deutsche Sammlung von Mikroorganismen und Zellkulturen), and HSRRB (Health Science Research Resources Bank) and cultured in RPMI or Dulbecco's modified Eagle's medium plus 10% FBS (Invitrogen, Carlsbad, CA) at 37°C, 5% CO2.

COc1cc2c(cc1OC(C)C)[C@H](c1ccc(Cl)cc1)N(c1ccc(N(C)C[C@H]3CC[C@H](N4CCNC(=O)C4)CC3)cc1)C(=O)C2 [NVP-CFC218]
IC50 (read-out: NVP- CFC218 IC50 (µM), cell line MEL-HO, skin, TP53 WT): > 8 µM
IC50 (read-out: NVP- CFC218 IC50 (µM), cell line NCI-H1341, lung, TP53 WT): > 8 µM
IC50 (read-out: NVP- CFC218 IC50 (µM), cell line PE/CA-PJ41 (clone D2), upper_aerodigestive_tract, TP53 MUT): > 8 µM
IC50 (read-out: NVP- CFC218 IC50 (µM), cell line PEER, haem._and_lymphoid_tissue, TP53 MUT): > 8 µM
IC50 (read-out: NVP- CFC218 IC50 (µM), cell line SNG-M, endometrium, TP53 WT): > 8 µM
IC50 (read-out: NVP- CFC218 IC50 (µM), cell line Sq-1, lung, TP53 WT): > 8 µM
IC50 (read-out: NVP- CFC218 IC50 (µM), cell line TE-9, oesophagus, TP53 MUT): > 8 µM
IC50 (read-out: NVP- CFC218 IC50 (µM), cell line WM-88, skin, TP53 WT): > 8 µM
Amax (Hs 729, TP53 MUT): 7.88%
sensitivity call (Hs 729, TP53 MUT): insensitive (Sensitivity call for each compound was applied according to a cut-off of 4 µM for IC50 and -50% for Amax)
Amax (IGROV1, TP53 MUT): -1.82%
sensitivity call (IGROV1, TP53 MUT): insensitive (Sensitivity call for each compound was applied according to a cut-off of 4 µM for IC50 and -50% for Amax)
Amax (J82, TP53 MUT): -2.55%
sensitivity call (J82, TP53 MUT): insensitive (Sensitivity call for each compound was applied according to a cut-off of 4 µM for IC50 and -50% for Amax)
Amax (JHH-7, TP53 MUT): -2.28%
sensitivity call (JHH-7, TP53 MUT): insensitive (Sensitivity call for each compound was applied according to a cut-off of 4 µM for IC50 and -50% for Amax)
Amax (JHUEM-2, TP53 WT): -91.79%
sensitivity call (JHUEM-2, TP53 WT): sensitive (Sensitivity call for each compound was applied according to a cut-off of 4 µM for IC50 and -50% for Amax)
Amax (JMSU-1, TP53 MUT): 2.12%
sensitivity call (JMSU-1, TP53 MUT): insensitive (Sensitivity call for each compound was applied according to a cut-off of 4 µM for IC50 and -50% for Amax)
Amax (KE-39, TP53 MUT): -5.22%
sensitivity call (KE-39, TP53 MUT): insensitive (Sensitivity call for each compound was applied according to a cut-off of 4 µM for IC50 and -50% for Amax)
Amax (KE-97, TP53 WT): -79.42%
sensitivity call (KE-97, TP53 WT): sensitive (Sensitivity call for each compound was applied according to a cut-off of 4 µM for IC50 and -50% for Amax)
Amax (KMM-1, TP53 MUT): -27.14%
sensitivity call (KMM-1, TP53 MUT): insensitive (Sensitivity call for each compound was applied according to a cut-off of 4 µM for IC50 and -50% for Amax)
Amax (KNS-60, TP53 MUT): -1.47%
sensitivity call (KNS-60, TP53 MUT): insensitive (Sensitivity call for each compound was applied according to a cut-off of 4 µM for IC50 and -50% for Amax)
Amax (KP-N-SI9s, TP53 WT): -92.10%
sensitivity call (KP-N-SI9s, TP53 WT): sensitive (Sensitivity call for each compound was applied according to a cut-off of 4 µM for IC50 and -50% for Amax)
Amax (KU812, TP53 MUT): 19.95%
sensitivity call (KU812, TP53 MUT): insensitive (Sensitivity call for each compound was applied according to a cut-off of 4 µM for IC50 and -50% for Amax)
Amax (KYSE-30, TP53 MUT): -3.88%
sensitivity call (KYSE-30, TP53 MUT): insensitive (Sensitivity call for each compound was applied according to a cut-off of 4 µM for IC50 and -50% for Amax)
Amax (KYSE-70, TP53 MUT): -0.20%
sensitivity call (KYSE-70, TP53 MUT): insensitive (Sensitivity call for each compound was applied according to a cut-off of 4 µM for IC50 and -50% for Amax)
Amax (KYSE-140, TP53 MUT): -19.56%
sensitivity call (KYSE-140, TP53 MUT): insensitive (Sensitivity call for each compound was applied according to a cut-off of 4 µM for IC50 and -50% for Amax)
Amax (KYSE-180, TP53 MUT): -30.58%
sensitivity call (KYSE-180, TP53 MUT): insensitive (Sensitivity call for each compound was applied according to a cut-off of 4 µM for IC50 and -50% for Amax)
Amax (LCLC-103H, TP53 MUT): -1.79%
sensitivity call (LCLC-103H, TP53 MUT): insensitive (Sensitivity call for each compound was applied according to a cut-off of 4 µM for IC50 and -50% for Amax)
Amax (LK-2, TP53 MUT): -3.65%
sensitivity call (LK-2, TP53 MUT): insensitive (Sensitivity call for each compound was applied according to a cut-off of 4 µM for IC50 and -50% for Amax)
Amax (LN-18, TP53 MUT): -16.71%
sensitivity call (LN-18, TP53 MUT): insensitive (Sensitivity call for each compound was applied according to a cut-off of 4 µM for IC50 and -50% for Amax)
Amax (LOU-NH91, TP53 MUT): 2.89%
sensitivity call (LOU-NH91, TP53 MUT): insensitive (Sensitivity call for each compound was applied according to a cut-off of 4 µM for IC50 and -50% for Amax)
Amax (LOX IMVI, TP53 WT): -48.25%
sensitivity call (LOX IMVI, TP53 WT): insensitive (Sensitivity call for each compound was applied according to a cut-off of 4 µM for IC50 and -50% for Amax)
Amax (LU65, TP53 MUT): -1.36%
sensitivity call (LU65, TP53 MUT): insensitive (Sensitivity call for each compound was applied according to a cut-off of 4 µM for IC50 and -50% for Amax)
Amax (MEG-01, TP53 MUT): 0.30%
sensitivity call (MEG-01, TP53 MUT): insensitive (Sensitivity call for each compound was applied according to a cut-off of 4 µM for IC50 and -50% for Amax)
Amax (MKN74, TP53 MUT): 2.29%
sensitivity call (MKN74, TP53 MUT): insensitive (Sensitivity call for each compound was applied according to a cut-off of 4 µM for IC50 and -50% for Amax)
Amax (MOG-G-UVW, TP53 WT): 3.49%
sensitivity call (MOG-G-UVW, TP53 WT): insensitive (Sensitivity call for each compound was applied according to a cut-off of 4 µM for IC50 and -50% for Amax)
Amax (MOLM-16, TP53 MUT): 12.84%
sensitivity call (MOLM-16, TP53 MUT): insensitive (Sensitivity call for each compound was applied according to a cut-off of 4 µM for IC50 and -50% for Amax)
Amax (MeWo, TP53 MUT): 0.14%
sensitivity call (MeWo, TP53 MUT): insensitive (Sensitivity call for each compound was applied according to a cut-off of 4 µM for IC50 and -50% for Amax)
Amax (NCI-H23, TP53 MUT): -1.09%
sensitivity call (NCI-H23, TP53 MUT): insensitive (Sensitivity call for each compound was applied according to a cut-off of 4 µM for IC50 and -50% for Amax)
Amax (NCI-H1355, TP53 MUT): -28.98%
sensitivity call (NCI-H1355, TP53 MUT): insensitive (Sensitivity call for each compound was applied according to a cut-off of 4 µM for IC50 and -50% for Amax)
Amax (NCI-H1648, TP53 MUT): -2.43%
sensitivity call (NCI-H1648, TP53 MUT): insensitive (Sensitivity call for each compound was applied according to a cut-off of 4 µM for IC50 and -50% for Amax)
Amax (NCI-H1651, TP53 MUT): -2.57%
sensitivity call (NCI-H1651, TP53 MUT): insensitive (Sensitivity call for each compound was applied according to a cut-off of 4 µM for IC50 and -50% for Amax)
Amax (NCI-H2009, TP53 MUT): -6.28%
sensitivity call (NCI-H2009, TP53 MUT): insensitive (Sensitivity call for each compound was applied according to a cut-off of 4 µM for IC50 and -50% for Amax)
Amax (NCI-H2110, TP53 MUT): -4.78%
sensitivity call (NCI-H2110, TP53 MUT): insensitive (Sensitivity call for each compound was applied according to a cut-off of 4 µM for IC50 and -50% for Amax)
Amax (NCI-H2122, TP53 MUT): -89.07%
sensitivity call (NCI-H2122, TP53 MUT): sensitive (Sensitivity call for each compound was applied according to a cut-off of 4 µM for IC50 and -50% for Amax)
Amax (NCI-H2444, TP53 MUT): -4.64%
sensitivity call (NCI-H2444, TP53 MUT): insensitive (Sensitivity call for each compound was applied according to a cut-off of 4 µM for IC50 and -50% for Amax)
Amax (NCI-H2452, TP53 WT): -0.68%
sensitivity call (NCI-H2452, TP53 WT): insensitive (Sensitivity call for each compound was applied according to a cut-off of 4 µM for IC50 and -50% for Amax)
Amax (NCO2, TP53 MUT): -1.52%
sensitivity call (NCO2, TP53 MUT): insensitive (Sensitivity call for each compound was applied according to a cut-off of 4 µM for IC50 and -50% for Amax)
Amax (OCI-M1, TP53 MUT): -1.98%
sensitivity call (OCI-M1, TP53 MUT): insensitive (Sensitivity call for each compound was applied according to a cut-off of 4 µM for IC50 and -50% for Amax)
Amax (OE33, TP53 MUT): -2.82%
sensitivity call (OE33, TP53 MUT): insensitive (Sensitivity call for each compound was applied according to a cut-off of 4 µM for IC50 and -50% for Amax)
